Test results reported in the NIST ThermoML archive (doi:10.1021/je060271a).
“And” between values parts separate entries of the source, which are not always exact repeats. Equal entries are not always repeated.

Details: 303.16 K, Liquid, Vibrating tube method

CCCCCC(=O)OCC(COC(=O)CCCCC)(COC(=O)CCCCC)COC(=O)CCCCC [pentaerythritol tetrahexanoate]
Details	mass density
10818 kPa	995.1 kg/m3
10847 kPa	995.1 kg/m3
10876 kPa	995.3 kg/m3
10911 kPa	995.2 kg/m3
10941 kPa	995.3 kg/m3
10972 kPa	995.3 kg/m3
11002 kPa	995.2 kg/m3
11031 kPa	995.3 kg/m3
11066 kPa	995.3 kg/m3
11454 kPa	995.6 kg/m3
11487 kPa	995.6 kg/m3
11513 kPa	995.6 kg/m3
11540 kPa	995.6 kg/m3
11571 kPa	995.7 kg/m3
11596 kPa	995.6 kg/m3
11626 kPa	995.6 kg/m3
11790 kPa	995.8 kg/m3
11810 kPa	995.6 kg/m3
11820 kPa	995.9 kg/m3
11829 kPa	995.8 kg/m3
11924 kPa	995.8 kg/m3
11933 kPa	995.7 kg/m3
11944 kPa	995.8 kg/m3
11958 kPa	995.9 kg/m3
11979 kPa	995.9 kg/m3
11996 kPa	996 kg/m3
12017 kPa	996 kg/m3
12842 kPa	996.5 kg/m3
12884 kPa	996.5 kg/m3
13029 kPa	996.6 kg/m3
13048 kPa	996.5 kg/m3
13072 kPa	996.5 kg/m3
13092 kPa	996.6 kg/m3
13112 kPa	996.6 kg/m3
13136 kPa	996.7 kg/m3
13156 kPa	996.5 kg/m3
13176 kPa	996.6 kg/m3
13200 kPa	996.7 kg/m3
13220 kPa	996.6 kg/m3
13241 kPa	996.7 kg/m3
13266 kPa	996.7 kg/m3
13286 kPa	996.7 kg/m3
14924 kPa	997.7 kg/m3
14953 kPa	997.6 kg/m3
14977 kPa	997.7 kg/m3
15002 kPa	997.7 kg/m3
15135 kPa	997.8 kg/m3
15160 kPa	997.8 kg/m3
15189 kPa	997.8 kg/m3
15214 kPa	997.8 kg/m3
15239 kPa	997.8 kg/m3
15264 kPa	997.9 kg/m3
15318 kPa	997.9 kg/m3
15342 kPa	997.9 kg/m3
15371 kPa	997.9 kg/m3
15394 kPa	997.9 kg/m3
15422 kPa	997.9 kg/m3
15445 kPa	998 kg/m3
15468 kPa	998 kg/m3
15492 kPa	998 kg/m3
15520 kPa	998 kg/m3
15543 kPa	998 kg/m3
15567 kPa	997.9 kg/m3
15595 kPa	998 kg/m3
15618 kPa	998 kg/m3
15865 kPa	998.4 kg/m3
16816 kPa	998.8 kg/m3
17240 kPa	999 kg/m3
17241 kPa	999 kg/m3
17243 kPa	999 kg/m3
17245 kPa	999 kg/m3
17258 kPa	999.1 kg/m3
17279 kPa	999 kg/m3
17302 kPa	999 kg/m3
17313 kPa	999 kg/m3
17343 kPa	999.1 kg/m3
17353 kPa	999.1 kg/m3 and 999 kg/m3
17354 kPa	999.1 kg/m3 and 999.2 kg/m3
17601 kPa	999.3 kg/m3
17625 kPa	999.2 kg/m3
17654 kPa	999.2 kg/m3
17675 kPa	999.2 kg/m3
17704 kPa	999.3 kg/m3
17727 kPa	999.3 kg/m3
17750 kPa	999.5 kg/m3
17777 kPa	999.3 kg/m3
17799 kPa	999.3 kg/m3
17825 kPa	999.3 kg/m3
17847 kPa	999.3 kg/m3
17869 kPa	999.3 kg/m3
17891 kPa	999.4 kg/m3
18682 kPa	999.8 kg/m3
18706 kPa	999.9 kg/m3
18735 kPa	999.9 kg/m3
18759 kPa	999.9 kg/m3
18784 kPa	999.9 kg/m3
18808 kPa	1000 kg/m3
18838 kPa	999.9 kg/m3
18862 kPa	1000 kg/m3
18892 kPa	1000 kg/m3
23429 kPa	1002.6 kg/m3
23459 kPa	1002.6 kg/m3
23495 kPa	1002.6 kg/m3
23525 kPa	1002.6 kg/m3
23561 kPa	1002.7 kg/m3
23592 kPa	1002.6 kg/m3
23622 kPa	1002.8 kg/m3
23653 kPa	1002.7 kg/m3
23690 kPa	1002.8 kg/m3
23720 kPa	1002.8 kg/m3
23757 kPa	1002.7 kg/m3
23788 kPa	1002.8 kg/m3
23820 kPa	1002.9 kg/m3
23856 kPa	1002.8 kg/m3
23888 kPa	1002.8 kg/m3
23920 kPa	1002.9 kg/m3
23958 kPa	1002.9 kg/m3
23990 kPa	1002.8 kg/m3
24022 kPa	1002.9 kg/m3
24054 kPa	1002.8 kg/m3
24093 kPa	1003 kg/m3
24125 kPa	1003 kg/m3
24164 kPa	1003 kg/m3
24196 kPa	1003.1 kg/m3
24226 kPa	1003 kg/m3
24255 kPa	1003.1 kg/m3
24419 kPa	1003.2 kg/m3
24447 kPa	1003.2 kg/m3
24481 kPa	1003.2 kg/m3
24509 kPa	1003.2 kg/m3
24537 kPa	1003.1 kg/m3
24571 kPa	1003.3 kg/m3
24599 kPa	1003.3 kg/m3
24628 kPa	1003.3 kg/m3
24656 kPa	1003.4 kg/m3
24691 kPa	1003.3 kg/m3
24720 kPa	1003.3 kg/m3
24749 kPa	1003.3 kg/m3
24778 kPa	1003.3 kg/m3
24812 kPa	1003.4 kg/m3
24935 kPa	1003.4 kg/m3
25029 kPa	1003.4 kg/m3
25058 kPa	1003.4 kg/m3
25094 kPa	1003.6 kg/m3
